Legend:
[1] = Particle size distribution by dynamic light scattering (DLS); assay type: physicochemical
Description: Dynamic light scattering was used to evaluate size distribution of the nanocomplexes formed, and that of the pure protein. To produce particles containing the EGCG:β-Lg molar ratios 2:1, 4:1, 6:1, 8:1 and 10:1, two experiments were performed: • (1) β-Lg solution (0.54 mM, in 0.9 ml of 30 mM PBS, pH 7) was heated to 75° C. for 20 minutes, and then EGCG solutions (1.96 mM-10.25 mM, in 0.48 ml of 5 mM PBS, pH 2.5) were added. […] The final EGCG concentrations were 0.87 mM-4.36 mM (0.04%-0.2%), the final β-Lg concentration was 0.43 mM (0.8%) and the pH of the final solution was 6.88.
After polyphenol addition, samples were vortexed for 20 seconds and allowed to cool to room temperature before measurement.
Particle size distribution was studied by a dynamic light scattering (DLS) analyzer (NICOMP™ 380, Particle Sizing Systems Inc., Santa Barbara, Calif., USA) equipped with an Avalanche Photo Diode (APD) detector, used at a fixed angle of 90°. The 90 mW laser wavelength was 658 nm. Mono- bi- or tri-modal distributions were calculated from the scattered light intensity fluctuations, by cumulants Nicomp™ analysis of the auto correlation function (see supplementary information in (Shapira, Assaraf, & Livney, 2009) for a more complete method description). The size range for the Nicomp distribution analysis was set to 1-1,000 nm. Measurements were made in duplicates at 25° C. Table 3 and FIG. 7 show an increase in particle size with increasing EGCG concentration indicating the formation of preheated complexes/nanoparticles (75° C., 20 min before EGCG addition). The molar ratios of β-Lg to EGCG presented in FIG. 7 are: 1:0 (straight line), 1:2 (dotted line), 1:4 (broken line), 1:6 (bold line/dot/line; ? ), 1:8 (fine line/dot/line; ? ) and 1:10 (line/2 dots; ? ).
As detailed above, EGCG-β-Lg nanoparticles at neutral pH are smaller than 50 nm. In order to determine whether the addition of EGCG to the preheated β-Lg causes, in addition to a slight increase in size, a change in colloidal stability, different EGCG concentration solutions were added to the pre-heated β-Lg to create nano-complexes comprised of β-Lg:EGCG at molar ratios in the range of 1:0 to 1:8, while the β-Lg concentration remains constant at a neutral pH (6.8).
The size distribution of the nano-particles solution seemed to consist of two fractions. The first fraction included the small nano-particles in the range of 2-3 nm in diameter and the second fraction included nano-particles of about 15 nm. Since the size of the protein molecule is around 2 nm, it would be reasonable to assume that the smaller-size fraction represents unbound protein molecules or protein molecules with a few bound EGCG molecules, while the larger-size fraction represents complexes comprising several protein molecules, and probably also several EGCG molecules. […] It was important to see whether the increase in the fraction of the larger sized complexes causes a decrease in colloidal stability. Therefore the predicted stability of the same complexes was studied by measuring the electrophoretic mobility (EM) of the nanocomplexes (FIG. 9B). For uniform and moderate electric fields, a linear relationship usually exists between the steady-state electrophoretic mobility and the zeta potential value (Delgado, et al. (2007) Journal of Colloid and Interface Science, Vol. 309, pages 194-224). The zeta potential is calculated according to the measured electrophoretic mobility using several theoretical models available. The choice of a suitable model is carried out according to the ratio of the particle radius (a) and the Debye length (κ−1) (i.e. a/κ−1=κ*a) which characterize the studied composition. […] In the composition of the invention for the smaller particles (of ˜2-3 nm) the κ*a was approximately 1.5. For the larger complexes of about 15 nm, the κ*a value was approximately 7.5. […]

[2] = target: T1, preheated β-Lg (75° C., 20 min) (Bos taurus, UniProt P02754); assay: Intrinsic protein fluorescence quenching: binding of EGCG to preheated β-Lg (Langmuir-based model and modified Stern-Volmer); parameters: species or system bovine; settings: for KSVa ± S.E. (Stern-Volmer quenching constant) / fa ± S.E. (fraction of fluorophore-sites accessible): preheated 20 min 75° C.; for Ka ± S.E.: protein preheated 20 min 75° C. before adding EGCG
T1 construct: Beta-lactoglobulin (β-Lg, 18.4 kDa, 162 amino acids) is the major whey protein in cow milk; purchased
T1 sequence (P02754 17-178): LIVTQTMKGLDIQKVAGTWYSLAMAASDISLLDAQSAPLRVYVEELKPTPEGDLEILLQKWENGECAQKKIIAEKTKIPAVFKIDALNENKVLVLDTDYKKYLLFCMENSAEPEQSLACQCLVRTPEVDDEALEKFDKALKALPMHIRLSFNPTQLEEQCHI
Description: (§1) It is based on exciting at 280 nm the Trp and Tyr residues of bovine β-Lg (bovine β-Lg contains two Trp residues and four Tyr residues) and at 295 nm where only Trp residues are excited though the quantum yield of the Trp itself is smaller than that at 280 nm.
(§2) All fluorescence measurements were performed at room temperature. β-Lg solution (2.09 μM in 1.9 ml of 30 mM PBS, pH 6.86) was heated at 75° C. for 20 minutes, or kept at room temperature. The co-assembly preparation process was done as described above. All measurements were performed after equilibrating the solutions at room temperature for 3 hours. EGCG solutions were 0-400 μM in 0.1 ml of 30 mM PBS, pH 2.44. All samples were prepared in triplicates. The pH of the final solutions was 6.86. β-Lg fluorescence was measured at constant protein concentration of 2 μM and EGCG concentrations of 0-20 μM using a Fluorolog 3-22 spectrofluorometer (Horiba, Jobin Yvon, Longjumeau, France) at a Right-Angle mode. Emission spectra were recorded from 290 to 510 nm with an excitation wavelength of 280 nm, and from 305 to 520 nm with an excitation wavelength of 295 nm, employing 5 nm slit widths. The statistical analysis and non-linear curve fitting were performed using Origin 8 (OriginLab, Northampton, USA).
(§3) Trp61 is reportedly quenched in the native state due to proximity to the Cys66-Cys160 disulfide bond, while Trp 19 is located in a non-polar environment within the cavity of the β-barrel structure, and is responsible for most of the Trp (and the protein) fluorescence. A small shift in the maximal emission wavelength of the protein occurred upon heating and was more clearly observed at the excitation wavelength attributed to Trp alone (295 nm). As only small shifts in the maximal wavelength occurred, all analyses were performed at emission of 343 nm for both excitation wavelengths. When studying the binding of EGCG to β-LG by fluorescence, it is important to keep in mind that EGCG, and not only β-LG, absorbs energy, both at the protein's excitation and, to a lower extent, at the emission wavelengths. Consequently, an inner filtering effect occurs, which intensifies with increasing EGCG concentration, reducing the amount of available energy to excite the protein' s fluorescent groups and absorbing some of the emitted energy too. To overcome this effect, the emission at 343 nm was corrected according to Beer-Lambert's law, using equation 1:
(§4) F=Fu·10^QL(ε^λex^+ε^λem^) (Equation 1)
(§5) where Fu is the measured, uncorrected emission intensity, ελex and ελem—the molar extinction coefficients of EGCG at the excitation and emission wavelengths respectively (measured spectrophotometrically, in the same buffer), Q is the quencher (EGCG) concentration in the cell and L is the path length assumed to be 0.5 cm each for the excitation and emission.
(§6) The analysis for determination of the binding constants was performed using a Langmuir-based model, assuming one affinity-class of binding sites, as described by equation (2): […]
(§7) where F and F0 are the fluorescence intensities of the protein solution in the presence and in the absence of the ligand, respectively; F∞ is the fluorescence when the protein is saturated with the ligand and L0 is the total ligand concentration. The decrease in the fluorescence in the presence of different EGCG concentrations was recorded, and the association constant (Ka) as well as the value for maximum fluorescence difference (ΔFmax=F0−F∞) were calculated by non-linear curve fitting to equation 2 (FIG. 5). The parameters for the fitting were based on the quenching of Tyr and Trp fluorescence at pH 6.87, for β-Lg concentration of 2 μM.
(§8) Fluorescence quenching is often described by the Stern-Volmer equation (3): […]
(§9) where F0 and F are the fluorescence intensities before and after the addition of the quencher, respectively, KSV is the Stern-Volmer quenching constant and [Q] is the concentration of the quencher. […]

native β-Lg = target: T2, native β-Lg (Bos taurus, UniProt P02754); assay: Intrinsic protein fluorescence quenching: binding of EGCG to native β-Lg (Langmuir-based model and modified Stern-Volmer); parameters: species or system bovine; settings: without preheating (RT)
T2 construct: Beta-lactoglobulin (β-Lg, 18.4 kDa, 162 amino acids) is the major whey protein in cow milk; purchased
T2 sequence (P02754 17-178): T1 sequence (P02754 17-178)
Description: as §1, §2, §3, §4, §5, §6, §7, §8, §9

[3] = Protection against EGCG oxidation: absorbance at 425 nm over time; assay type: physicochemical
Description: Aliquots of 2.5 ml EGCG solution were transferred to 1 cm path length spectrophotometer cuvettes and covered with parafilm to prevent evaporation. […] Solutions of 0.52 mM (0.95%) protein at a 2:1 molar ratio (EGCG:protein) and pH 6.85 were compared to pure EGCG solutions. The protein was preheated at 2 temperatures (75° C. and 85° C.) for 20 minutes or kept at room temperature, to compare the protection provided by the partially denatured protein to that of the native protein. The reason for testing these two temperatures was that according to the literature, at about this pH, between 65-75° C. small proteins oligomers are formed, while between 75-85° C. some aggregation of the oligomers occurs. […] Appropriate controls of β-Lg without EGCG and EGCG without β-Lg at the respective concentrations and pH were performed. After preparation, the samples were placed in 1 cm path length spectrophotometer cuvettes and covered with parafilm. […]

[4] = sodium phosphate buffer (pH 7.4); 3 hr; cited from earlier work
[5] = Loading efficiency and loading ratio of EGCG by centrifugal ultrafiltration; assay type: physicochemical; settings: both β-Lg concentrations (0.5% and 1% w/w)
Description: The loading efficiency (the percentage of encapsulated substance out of total material added to the composition) and loading ratio (the ratio between the encapsulated substance and the encapsulation matrix) of EGCG was determined. β-Lg-EGCG nanoparticles solutions, of 2:1 and 8:1 EGCG: β-Lg molar ratios, were prepared at 1% w/w and 0.5% w/w protein solution. The entrapped EGCG in β-Lg nanoparticles was separated from the free EGCG by centrifugal ultrafiltration as described above. The molar loading ratio and the loading efficiency are presented on Table 4.

[6] = β-Lg 0.35 mM (0.65% (w/w) pH 6.56)
[7] = β-Lg 0.43 mM (0.8% (w/w) pH 6.56)

## 1:0: preheated β-lactoglobulin without EGCG (major whey protein in cow milk, 18.4 kDa)
[1]; rough summary of Table 3
  size: around 2 nm
[1]; [6]
  d, Peak I (β-Lg): 4.8 nm
  fvw, Peak I (β-Lg): 99.6%
[1]; [7]
  d, Peak I (β-Lg): 1.4 nm
  d, Peak II (β-Lg-EGCG): 20.2 nm
  fvw, Peak I (β-Lg): 99.8%
  fvw, Peak II (β-Lg-EGCG): 0.2%

## O=C(O[C@@H]1Cc2c(O)cc(O)cc2O[C@@H]1c1cc(O)c(O)c(O)c1)c1cc(O)c(O)c(O)c1 [EGCG, (−)-Epigallocatechin-3-gallate]
[2]; excitation 280 nm
  KSVa ± S.E. (Stern-Volmer quenching constant): 3.31 ± 0.7 10^5 M^−1
  fa ± S.E. (fraction of fluorophore-sites accessible): 0.32 ± 0.05
  Ka ± S.E.: 3.7 ± 0.67 10^5 M^−1
[2]; excitation 295 nm
  KSVa ± S.E. (Stern-Volmer quenching constant): 3.07 ± 1.05 10^5 M^−1
  fa ± S.E. (fraction of fluorophore-sites accessible): 0.25 ± 0.07
  Ka ± S.E.: 3.3 ± 1.07 10^5 M^−1
[2]; pH 6.87, β-Lg 2 μM, FIG. 5 fit
  Ka (association constant, Langmuir-based model fit): 370000 ± 67000 M⁻¹
  ΔFmax*10^6 (maximum fluorescence difference): 3.31±0.17
Native β-Lg; excitation 280 nm
  KSVa ± S.E. (Stern-Volmer quenching constant): 1.4 ± 0.7 10^5 M^−1
  Ka ± S.E.: 1.05 ± 0.34 10^5 M^−1
  fa ± S.E. (fraction of fluorophore-sites accessible): 0.16 ± 0.07
Native β-Lg; excitation 295 nm
  KSVa ± S.E. (Stern-Volmer quenching constant): 1.4 ± 0.7 10^5 M^−1
  Ka ± S.E.: 1.9 ± 0.6 10^5 M^−1
  fa ± S.E. (fraction of fluorophore-sites accessible): 0.15 ± 0.06
[3]; EGCG solution (0.05%) in pH 2.5 PBS
  increase in the 425 nm absorbance with time: no increase
[3]; PBS pH 6.8, EGCG 0.05%-0.5%
  degradation rate (absorbance at 425 nm): degradation rate increased with rising EGCG concentration
[3]; eight days at room temperature, EGCG 1.09 mM (0.05%), β-Lg 0.52 mM, pH 6.85
  EGCG degradation rate (increase in absorbance at 425 nm): fastest increase in the absorbance
[4]
  EGCG lost: 80%

## Cn1c(=O)c2c(ncn2C)n(C)c1=O [caffeine]
[5]
  binding or entrapment in β-Lg: did not show any binding or entrapment

Reference: patent US20150182472A1, “DENATURED LACTOGLOBULIN AND POLYPHENOL COASSEMBLIES” (TECHNION RESEARCH AND DEVELOPMENT FOUNDTION LTD., priority 2010, published 2015)
